In BindingDB's records for doi:10.1021/jm0606185 (Uppsala University, 2006) one finds Ki data, which are given here for ten compounds.

SMILES strings stand for the structures.

The assay addresses Type-2 angiotensin II receptor (Sus scrofa). Nature of the assay: Displacement of [125I]Ang2 from AT2 receptor in pig uterus membrane. In general terms: Displacement assays read how much labelled ligand stays bound in the presence of the test substance.
One may read the Ki as a dissociation constant, usually derived from enzyme kinetics or from competition with a known ligand. `CCCCN(C)C(=O)NS(=O)(=O)c1sc(CC(C)C)cc1-c1ccc(Cn2ccnc2)cc1` [N-(N-butyl-methylaminocarbonyl)-3-(4-imidazol-1-ylmethylphenyl)-5-isobutylthiophene-2-sulfonamide] had a Ki of 4 nM. This counts as single-digit nanomolar.

Consider `COCCOC(=O)NS(=O)(=O)c1sc(CC(C)C)cc1-c1ccc(Cn2ccnc2)cc1` [N-(methyloxy-ethyloxycarbonyl)-3-(4-imidazol-1-ylmethylphenyl)-5-iso-butylthiophene-2-sulfonamide], for which the Ki is 31 nM. This Ki lies about 7.8-fold higher than the previous one.

`CCCCOC(=O)NS(=O)(=O)c1ccc(CCCC)cc1-c1ccc(Cn2ccnc2)cc1` [N-butyloxycarbonyl-2-(4-imidazol-1-ylmethylphenyl)-4-butylbenzenesulfonamide] gave a Ki of 5 nM. Against the preceding compound, the Ki is about 6.2-fold lower.

Turning to `CCCCOC(=O)NS(=O)(=O)c1ccc(OC(C)C)cc1-c1ccc(Cn2ccnc2)cc1` [N-butyloxycarbonyl-2-(4-imidazol-1-ylmethylphenyl)-4-iso-propoxybenzenesulfonamide], the inhibitory constant (Ki) was found to be 15 nM.

`CCCCOC(=O)NS(=O)(=O)c1sc(CCCC)cc1-c1ccc(Cn2ccnc2)cc1` [N-butyloxycarbonyl-3-(4-imidazol-1-ylmethylphenyl)-5-butylthiophene-2-sulfonamide] registered a Ki of 5 nM.

In turn, `CCCCS(=O)(=O)NC(=O)c1sc(CC(C)C)cc1-c1ccc(Cn2ccnc2)cc1` [N-butylsulfonyl-3-(4-imidazol-1-ylmethylphenyl)-5-iso-butylthiophene-2-carboxamide] came in with an inhibition constant (Ki) of 79 nM.

In the case of `CCCCS(=O)(=O)NS(=O)(=O)c1sc(CC(C)C)cc1-c1ccc(Cn2ccnc2)cc1` [N-butylsulfonyl-3-(4-imidazol-1-ylmethylphenyl)-5-iso-butylthiophene-2-sulfonamide], the affinity corresponds to a Ki of 76 nM.

In turn, `CCCCc1ccc(S(=O)(=O)NC(=O)OCC)c(-c2ccc(Cn3ccnc3)cc2)c1` [N-ethyloxycarbonyl-2-(4-imidazol-1-ylmethylphenyl)-4-butylbenzenesulfonamide] gave a Ki of 2 nM. This Ki lies about 38-fold lower than the previous one.

Compound `CC(C)Cc1cc(-c2ccc(Cn3ccnc3)cc2)c(S(=O)(=O)NC(=O)OC(C)C)s1` [N-iso-propyloxycarbonyl-3-(4-imidazol-1-ylmethylphenyl)-5-iso-butylthiophene-2-sulfonamide] gave a Ki of 75 nM.

Compound `CC(C)Cc1cc(-c2ccc(Cn3ccnc3)cc2)c(S(=O)(=O)NC(=O)OC(C)(C)C)s1` [N-tert-butyloxycarbonyl-3-(4-imidazol-1-ylmethylphenyl)-5-iso-butylthiophene-2-sulfonamide] gave a Ki of 63 nM.
